One assay deals with T1, huFAP (Homo sapiens, UniProt Q12884).
T1 sequence (Q12884 1-760): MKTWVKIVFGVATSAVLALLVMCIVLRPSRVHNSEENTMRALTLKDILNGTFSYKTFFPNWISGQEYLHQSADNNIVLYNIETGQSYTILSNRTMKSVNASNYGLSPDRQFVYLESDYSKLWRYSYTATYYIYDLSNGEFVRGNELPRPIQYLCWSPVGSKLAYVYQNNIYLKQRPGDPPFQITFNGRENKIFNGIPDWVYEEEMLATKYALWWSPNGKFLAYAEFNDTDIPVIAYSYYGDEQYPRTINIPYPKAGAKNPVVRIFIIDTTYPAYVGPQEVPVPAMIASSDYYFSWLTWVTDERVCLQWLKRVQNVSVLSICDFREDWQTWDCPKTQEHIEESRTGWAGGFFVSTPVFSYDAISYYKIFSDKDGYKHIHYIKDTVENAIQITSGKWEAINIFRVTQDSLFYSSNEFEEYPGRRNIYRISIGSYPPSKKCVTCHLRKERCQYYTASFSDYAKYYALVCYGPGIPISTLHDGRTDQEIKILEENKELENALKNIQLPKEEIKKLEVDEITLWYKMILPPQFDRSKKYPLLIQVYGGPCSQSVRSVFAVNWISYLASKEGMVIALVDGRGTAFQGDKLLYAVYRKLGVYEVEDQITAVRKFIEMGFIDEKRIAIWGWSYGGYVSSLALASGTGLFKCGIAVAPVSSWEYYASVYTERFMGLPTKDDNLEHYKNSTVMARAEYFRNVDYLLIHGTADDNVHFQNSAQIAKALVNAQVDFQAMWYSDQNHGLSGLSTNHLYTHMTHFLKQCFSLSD
The assay is described as follows: Recombinant enzymatic inhibition assay, huFAP (Z-Gly-Pro-AMC). The format is biochemical. The settings on record: n = 3, picture: nM ± 95% CI. How it is done:
All enzymatic assays were performed in black 384-well plates, and enzymatic activity was measured on a microplate reader, monitoring the fluorescence at λEX 350 nm/λEM 485 nm. […] Val-boroPro (10^− 4 M) and assay buffer served as a positive and negative control, respectively. To measure inhibition of PREP, 50 µL of the reaction mixture containing 1 µM Z-Gly-Pro-AMC and 10 ng PREP (R&D Systems; Minneapolis, MN, USA) were used. The enzymatic assay of DPP4 contained substrate (100 µM), DPP4 (Abcam; Cambridge, UK) (10 nM), assay buffer, and increasing concentrations of the inhibitors (10^− 10 M to 10^− 4 M). Sitagliptin (10^− 4 M) and assay buffer were used as a positive and negative control, respectively. H-Gly-Pro-AMC (100 µM) in assay buffer was used as a baseline control. The plates were analyzed in a Hidex Sense Microplate reader (Hidex; Turku, Finland) at 37 °C under dark conditions for 1 h (huFAP), 2 h (muFAP), or 30 min (PREP, DPP4). For all assays, the components were kept on ice before plating.
All statistical analyses were performed with GraphPad Prism version 9.0 (San Diego, California USA). All IC50 values were determined using a non-linear regression Log(inhibitor) vs. response analysis with variable slope (four parameters). For the in vivo results outliers were identified by a ROUT test (Q = 1%) and excluded. Next, a two-tailed student’s t-test was performed (*p < 0.05, **p < 0.01, ***p < 0.001). All experiments were performed in triplicate and repeated at least three times.

For assay [1], the target named is T2, huFAP (HT1080-huFAP cells) (Homo sapiens, UniProt Q12884).
T2 construct: expressed in transfected cells; host or cells: HT1080 (human sarcoma), stably transduced; provided by Prof; Dr. Uwe Haberkorn, University of Heidelberg
T2 sequence (Q12884 1-760): T1 sequence (Q12884 1-760)
The assay is described as follows: [^111In]In-FAPI-46 displacement assay on FAP-expressing cells. The format is binding. To be noted: 10^-9 M [^111In]In-FAPI-46, 45 min, n = 3, picture: nM ± 95% CI. How it is done:
Cell experiments were performed with the human sarcoma HT1080 cell line, stably transduced with human FAP (HT1080-huFAP) which were kindly provided by Prof. Dr. Uwe Haberkorn from the University of Heidelberg. The wild type HT1080 (ATTC), hereafter HT080-WT, was used as a negative control. Additionally, the pancreatic stellate cells PS-1, obtained from Queen Mary University, were used as an endogenously FAP expressing cell line. HT1080-huFAP and HT1080-WT cells were cultured in DMEM Glutamax© (Gibco; Breda, The Netherlands) and the PS-1 cells were cultured in RPMI (Gibco). Both media were supplemented with 10% FBS (Gibco), 100 UI/mL penicillin, and 100 µg/mL streptomycin (Merck Life Science NV; Amsterdam, The Netherlands). All cell lines were regularly passaged at 80% confluence and cultured at 37 °C, 5% CO2.
In vitro displacement studies of eFAP-6 and eFAP-7, as well as specificity and uptake assays, were performed using HT0180-huFAP cells. One day prior to the assay 100,000 cells were seeded in a 12-well plate in triplicate. […] For the uptake assay, the cells were incubated with 1 nM [^111In]In-eFAP-6 or [^111In]In-FAPI-46 for different time points (5–120 min) in the presence and absence of 1 mM UAMC-1110 to determine the specificity of^111 radiotracer binding. In both assays, the cells were washed twice with PBS after incubation and were subsequently lysed using 1 M NaOH for 20 min. The cell lysates were collected and radioactivity was measured in a γ-counter (PerkinElmer), simultaneously with 100 µL of the radioactive incubation medium as a standard. […] Uptake was expressed as percentage added activity per 200,000 cells (% AA/200,000 cells), and specific uptake was corrected by subtracting the uptake measured in the block wells.
All statistical analyses were performed with GraphPad Prism version 9.0 (San Diego, California USA). All IC50 values were determined using a non-linear regression Log(inhibitor) vs. response analysis with variable slope (four parameters). […]

In the case of `CN(CCCN1CCN(C(=O)CN2CCN(CC(=O)O)CCN(CC(=O)O)CCN(CC(=O)O)CC2)CC1)c1ccc2nccc(C(=O)NCC(=O)N3CC(F)(F)C[C@H]3C#N)c2c1` [FAPI-46, reference compound], the IC50 on huFAP amounted to 3.87 ± 2.7 nM; in assay [1], 1.42 ± 0.29 nM.

As to `N#C[C@@H]1CC(F)(F)CN1C(=O)CNC(=O)c1ccnc2c(OCCCNC(=O)CN3CCN(CC(=O)O)CCN(CC(=O)O)CCN(CC(=O)O)CC3)cccc12` [eFAP-6, (S)-2,2',2''-(10-(2-((3-((4-((2-(2-cyano-4,4-difluoropyrrolidin-1-yl)-2-oxoethyl)carbamoyl)quinolin-8-yl)oxy)propyl)amino)-2-oxoethyl)-1,4,7,10-tetraazacyclododecane-1,4,7-triyl)triacetic acid], the IC50 came out at 1.16 ± 0.04 nM on huFAP and 0.62 ± 0.26 nM in assay [1].

For the compound `CN1/C(=C/C=C/C=C/C2=[N+](CCCCCC(=O)NCCCOc3cccc4c(C(=O)NCC(=O)N5CC(F)(F)C[C@H]5C#N)ccnc34)c3ccc(S(=O)(=O)[O-])cc3C2(C)C)C(C)(C)c2cc(S(=O)(=O)O)ccc21` [eFAP-7, 1-(6-((3-((4-((2-((S)-2-cyano-4,4-difluoropyrrolidin-1-yl)-2-oxoethyl)carbamoyl)quinolin-8-yl)oxy)propyl)amino)-6-oxohexyl)-3,3-dimethyl-5-sulfo-2-((1E,3E)-5-((E)-1,3,3-trimethyl-5-sulfoindolin-2-ylidene)penta-1,3-dien-1-yl)-3H-indol-1-ium], the IC50 at huFAP worked out at 4.23 ± 0.5 nM; in assay [1], 1 ± 0.36 nM.

By IC50 is commonly meant the concentration that inhibits the measured activity by half.

Values taken from publication PMC11286609, “In vitro and in vivo analyses of eFAP: a novel FAP-targeting small molecule for radionuclide theranostics and other oncological interventions” (EJNMMI Radiopharmacy and Chemistry, 2024).
